Data set [1] relates to C. coli. The data set is described as follows: Campylobacter coli inactivation kinetics (viable bacteria, CFU/mL). It counts as cell-based. To be noted: added to H2O2 0.01%, CuCl2 2 μM; MZ 20 μM.
The subject of data set [2] is vaccinia virus. The class given is cell-based. To be noted: added to H2O2 0.002%, CuCl2 1 μM; MZ 10 μM; PBS pH 7.5.
In data set [3] the test system is CHIKV E1 and E2 structural proteins. As to the kind of experiment: CHIKV-specific sandwich ELISA with two neutralizing monoclonal antibodies (antigenicity). To be noted: for CHIKV antigenicity (retained neutralizing epitopes, ELISA): treated 20 hours at room temperature (FIG. 19A). It counts as binding, Chikungunya virus. In general terms: An ELISA detects its analyte on a solid surface through an enzyme-linked reagent.

The test system of data set [4] is Listeria monocytogenes. The data set is described as follows: Listeria monocytogenes inactivation (CFU/mL). It counts as cell-based. To be noted: added to H2O2 0.10%, CuCl2 10 μM; MZ 100 μM.
The test system of data set [5] is DENV4. It counts as cell-based, dengue virus serotype 4.
In data set [6] the test system is CHIKV. It counts as cell-based, Chikungunya virus.
For data set [7], the system named is DENV4 envelope structural protein. The data set is described as follows: DENV-specific sandwich ELISA on treated DENV4 (antigenicity). The class given is binding, dengue virus serotype 4. To be noted: for DENV4 antigenicity (retained neutralizing epitopes, ELISA): treated 20 hours at room temperature (FIG. 19B); for DENV4 antigenicity in the dual-oxidation system (ELISA): H2O2 0.01%, CuCl2 1 μM, each compound 10 μM, 20 hrs post-inactivation.

Data set [8] deals with Shigella dysenteriae. The data set is described as follows: Shigella dysenteriae inactivation (CFU/mL). To be noted: added to H2O2 0.10%, CuCl2 10 μM; MZ 100 μM. The class given is cell-based.
The conditions of data set [9]: human, in vivo, 152 mg/kg; cited from earlier work.
The test system of data set [10] is smallpox. To be noted: in vivo; cited from earlier work.
For data set [11], the system named is DENV3 envelope structural protein. The data set is described as follows: DENV-specific sandwich ELISA on treated DENV3 (antigenicity). The class given is binding, dengue virus 3. To be noted: H2O2 0.01%, range of CuCl2 and FeCl3 concentrations.
Data set [12] concerns C. coli. As to the kind of experiment: Campylobacter morphology after inactivation (Gram safranin stain). Further details: species or system Campylobacter coli. To be noted: 3% H2O2 for 5 hours at room temperature, or dual oxidation.
For data set [13], the system named is YFV envelope structural protein.
The test system of data set [14] is DENV2. The data set is described as follows: DENV2 inactivation kinetics at increasing total viral protein (PFU assay). It counts as cell-based, dengue virus 2. To be noted: 3% H2O2, or 0.01% H2O2 and 1 μM CuCl2, room temperature.

For the compound `CN1C(=O)/C(=N\NC(N)=S)c2ccccc21` [methisazone, N-methylisatin β-thiosemicarbazone], in data set [1], the “inactivation rate of Campylobacter coli” value was “substantially enhanced inactivation rates”. In [2], the “rate of dual-oxidation-based inactivation, vaccinia virus” value was “substantially increase the rate”. Also, the “CHIKV retained antigenicity with increasing methisazone relative to the transition metal” value in [3] (H2O2 0.02%, CuCl2 1 μM, ELISA at 20 hrs) is given as “concomitant improvements”. In data set [3], the “CHIKV antigenicity (retained neutralizing epitopes, ELISA)” value was “maintained or significantly improved antigenicity”. Besides, the “inactivation rate of Listeria monocytogenes” value in data set [4] is on record as “substantially enhanced inactivation rates”. Further, in [5], the “DENV4 inactivation in the absence of copper” value is “minimal impact”; the “increase of the rate of inactivation vs dual oxidation alone, DENV4” value is on record as 10- to 20 fold; the “rate of dual-oxidation-based inactivation, DENV4” value is on record as “substantially increase the rate”. For the same compound, in data set [6], the “CHIKV inactivation in the absence of copper” value is reported as “minimal impact”; the “CHIKV inactivation rates with increasing methisazone relative to the transition metal” value was “concomitant improvements”; the “increase of the rate of inactivation vs dual oxidation alone, CHIKV” value is given as 10- to 20 fold; the “rate of dual-oxidation-based inactivation, CHIKV” value is given as “substantially increase the rate”. Also, the “DENV4 antigenicity (retained neutralizing epitopes, ELISA)” value in data set [7] is “maintained or significantly improved antigenicity”. The “inactivation rate of Shigella dysenteriae” value in data set [8] is “substantially enhanced inactivation rates”. The serious adverse events entry in data set [9] was “lack of serious adverse events”. In addition, in data set [10], the “close contacts who developed mild smallpox” value is on record as 0.27%, the “close contacts who developed mild smallpox (cases/contacts)” value is on record as 3/1101, the “deaths among close contacts” value is recorded as “no deaths” and the “non-vaccinated subjects who contracted smallpox” value is on record as 2%. In addition, in [10], the “non-vaccinated subjects who contracted smallpox (cases/subjects)” value is given as 2/102.

For the compound `NNC(N)=O` [semicarbazide], the “DENV4 inactivation in the dual-oxidation system (plaque assay)” value (“DENV4 inactivation … (plaque assay)” for short) in data set [5] is on record as “do not appear to increase the rate of inactivation”. The “DENV4 antigenicity in the dual-oxidation system (ELISA)” value (from here on “DENV4 antigenicity … (ELISA)”) in data set [7] was “protection of protein antigens from oxidative damage”.

For the compound `NC(=S)NN=C1C(=O)Nc2ccccc21` [isatin β-thiosemicarbazone], in [5], the “DENV4 inactivation … (plaque assay)” value was “enhanced rates of inactivation”. Also, the “DENV4 antigenicity … (ELISA)” value in data set [7] is listed as “superior antigenicity”.

Consider `CCCN1C(=O)C(=NNC(N)=S)c2ccccc21` [N-propylisatin β-thiosemicarbazone], for which, in data set [5], the “DENV4 inactivation … (plaque assay)” value is listed as “enhanced rates of inactivation”. Also, in data set [7], the “DENV4 antigenicity … (ELISA)” value is recorded as “superior antigenicity”.

For the compound `NNC(N)=S` [thiosemicarbazide], the “DENV4 inactivation … (plaque assay)” value in [5] was “enhancement of inactivation”. For the same compound, the “DENV4 antigenicity … (ELISA)” value in data set [7] is “superior antigenicity”.

Consider `O=C1Nc2ccccc2C1=O` [isatin], for which, in data set [5], the “DENV4 inactivation … (plaque assay)” value is given as “do not appear to increase the rate of inactivation”. In addition, the “DENV4 antigenicity … (ELISA)” value in data set [7] is recorded as “protection of protein antigens from oxidative damage”.

Turning to `[Cl][Fe]([Cl])[Cl]` [FeCl3], the “DENV3 antigenicity with combinations of CuCl2 and FeCl3 (ELISA)” value in data set [11] is “enhanced antigenicity”.

Consider `OO` [3% H2O2, hydrogen peroxide], for which the “bacterial morphology after inactivation” value in data set [12] is given as “substantially damaged with clear changes in morphology”. The “antigenicity, in vitro potency testing using envelope-specific MAbs” value in data set [3] (3% H2O2 under standard conditions (7 hours, room temperature)) is reported as “nearly complete loss of antigenicity”. Besides, the “CHIKV antigenicity (retained neutralizing epitopes, ELISA)” value in [3] was “loss of neutralizing epitopes”. Further, the “DENV4 antigenicity (retained neutralizing epitopes, ELISA)” value in data set [7] was “loss of neutralizing epitopes”. In addition, the “YFV antigenicity (neutralizing epitopes)” value in data set [13] is “severe damage to neutralizing epitopes”. Besides, the “dependence of virus inactivation kinetics on total viral protein concentration” value in [14] is on record as “protein concentration-independent”.

The values above are taken from US11141475B2, “Inactivating pathogens and producing highly immunogenic inactivated vaccines using a dual oxidation process” (priority 2016, dated 2021).
